32 compounds from patent US10822312B2, “Substituted quinazoline compounds and methods of use” (ARAXES PHARMA LLC, priority 2016, dated 2020) can be followed below.

Assay [1] has as its target T1, KRAS WT (GDP-loaded, hexahistidine tagged, truncated 1-169) (Homo sapiens, UniProt P01116).
T1 construct: truncated (1-169) KRAS proteins; hexahistidine
Description: SOS-mediated nucleotide exchange assay, KRAS WT. It counts as biochemical. To be noted: SOS(cat)-mediated Bodipy-GDP exchange. How it is done: (§1) GDP-loaded, hexahistidine tagged, truncated (1-169) KRAS proteins (WT or G12D) were used (stored in protein dilution buffer [20 mM HEPES pH=7.5, 150 NaCl, 1 mM MgCl2]). 1 μL of the respective KRAS protein (1.88 μM stock, 0.125 μM final) was mixed with 10 μL of assay buffer (30 mM TRIS pH=7.5, 1.5 mM MgCl2, 0.135 μM Bodipy-GDP [20 mM TRIS pH=7.5, 1.0 mM MgCl2, 0.09 μM final]) and 1 μL of 15× compound stock in 30% DMSO (final DMSO conc. 2%). After 30 min incubation at room temperature, the exchange reaction was initiated by addition of 3 μL SOS(cat) (catalytic domain, 2.5 μM stock in protein dilution buffer, 0.5 μM final). The assay was carried out in black low-volume plates (Corning #4514) and fluorescence was monitored (485 nm excitation and 510 nm emission) for 45 minutes after initiation at 60-s intervals.
(§2) For data analysis, relative fluorescence values for each sample after subtracting the background values (before SOS addition) were plotted in graph pad. Rates were then calculated by fitting the data by non-linear regression (one phase association curve). Typically, 6 dilutions per compound (3-fold series, starting at 60 μM final) were measured. Calculated rates vs compound concentrations were fitted by non-linear regression (log(inhibitor) vs response-Variable slope (four parameters) fit) to determine IC50 values.
(§3) Compound numbers correspond to the numbers and structures provided in Tables 1, 2 and 3 and Examples 1-4.

For assay [2], the target named is T2, KRAS G12D (GDP-loaded, hexahistidine tagged, truncated 1-169) (Homo sapiens, UniProt P01116, G12D).
T2 construct: truncated (1-169) KRAS proteins; hexahistidine
T2 sequence (P01116 1-169 isoform P01116-2 G12D): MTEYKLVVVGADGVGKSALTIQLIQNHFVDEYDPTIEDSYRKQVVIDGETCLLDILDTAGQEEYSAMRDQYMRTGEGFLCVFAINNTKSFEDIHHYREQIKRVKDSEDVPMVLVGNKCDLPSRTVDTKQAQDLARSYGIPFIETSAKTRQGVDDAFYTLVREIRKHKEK
Kind of assay: SOS-mediated nucleotide exchange assay, KRAS G12D. It counts as biochemical. To be noted: SOS(cat)-mediated Bodipy-GDP exchange. How it is done: as §1, §2, §3

T1 sequence (P01116 1-169 isoform P01116-2): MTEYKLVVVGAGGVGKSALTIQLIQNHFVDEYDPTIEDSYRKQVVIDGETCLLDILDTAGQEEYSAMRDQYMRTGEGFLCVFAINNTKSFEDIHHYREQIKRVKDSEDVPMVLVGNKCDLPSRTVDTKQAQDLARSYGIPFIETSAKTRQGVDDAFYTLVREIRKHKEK

With `C[C@@H]1CN(c2nc(OCCCN(C)C)nc3c(F)c(-c4cc(O)cc5ccccc45)c(Cl)cc23)[C@@H](C)CN1` (atropisomer, axis not shown) [Compound 97], the IC50 in assay [1] and in assay [2] was greater than 15 µM throughout.

With `CN(C)CCCOc1nc(N2CCOCC2)c2cc(Cl)c(-c3cc(O)cc4ccccc34)c(F)c2n1` (atropisomer, axis not shown) [Compound 151], the IC50 is less than 15 µM in assay [1] and greater than 15 µM in assay [2]. With `CN(C)CCCOc1nc(N2CCNCC2)c2cc(C(F)(F)F)c(-c3cc(O)cc4ccccc34)c(F)c2n1` (atropisomer, axis not shown) [Compound 156], the IC50 in assay [2] was less than 15 µM. In the case of `CC(=O)N1CCN(c2nc(OCCCN(C)C)nc3c(F)c(-c4cc(O)cc5ccccc45)c(C(F)(F)F)cc23)CC1` (atropisomer, axis not shown) [Compound 158], the IC50 was less than 15 µM in assay [1] and greater than 15 µM in assay [2].

As to `CN(C)CCCOc1nc(N2CCOCC2)c2cc(C(F)(F)F)c(-c3cc(O)cc4ccccc34)c(F)c2n1` (atropisomer, axis not shown) [Compound 162], the IC50 is less than 15 µM in assay [1] and greater than 15 µM in assay [2]. Taken in the same sequence, the figures for `C[C@@H]1CN(c2nc(N3CC(N(C)C)C3)nc3c(F)c(-c4cc(O)cc5ccccc45)c(Cl)cc23)[C@@H](C)CN1` (atropisomer, axis not shown) [Compound 330] were greater than 15 µM and greater than 15 µM.

`CN(C)C1CN(c2nc(N3CCNCC3)c3cc(Cl)c(-c4cc(O)cc5ccccc45)c(F)c3n2)C1` (atropisomer, axis not shown) [Compound 339] registered an IC50 in assay [1] greater than 15 µM. As for `CC(=O)N1CCN(c2nc(OCCCN(C)C)nc3c(F)c(-c4cc(O)cc5ccccc45)c(Cl)cc23)CC1` (single isomer, unassigned) [Compound 18, 1-(4-(6-chloro-2-(3-(dimethylamino)propoxy)-8-fluoro-7-(3-hydroxynaphthalen-1-yl)quinazolin-4-yl)piperazin-1-yl)ethanone], the values for the IC50 in assay [1] and in assay [2] were less than 15 µM and greater than 15 µM, respectively.

`CN(C)CCCOc1nc(N2CCNCC2)c2cc(Cl)c(-c3cc(O)cc4ccccc34)c(F)c2n1` (single isomer, unassigned) [Compound 22, 4-(6-chloro-2-(3-(dimethylamino)propoxy)-8-fluoro-4-(piperazin-1-yl)quinazolin-7-yl)naphthalen-2-ol]: the IC50 was greater than 15 µM in assay [1] and less than 15 µM in assay [2]. In the case of `Cc1ccc2[nH]ncc2c1-c1c(Cl)cc2c(N3CCNCC3)nc(OCCCN(C)C)nc2c1F` [Compound 108], the IC50 in assay [1] and in assay [2] was greater than 15 µM each time.

Regarding `CN(C)CCCOc1nc(N2CCNCC2)c2cc(Cl)c(-c3c(O)cccc3F)c(F)c2n1` [Compound 112], the IC50 in assay [1] and in assay [2] was greater than 15 µM throughout.

As to `CN(C)CC(O)COc1nc(N2CCNCC2)c2cc(Cl)c(-c3cc(O)cc4ccccc34)c(F)c2n1` (centres unmarked) [Compound 120], the IC50 in assay [1] and in assay [2] was greater than 15 µM in each case. In the case of `CN(C)CCCOc1nc(N2CCNCC2)c2cc(C(F)(F)F)c(-c3cc(O)cc4ccccc34)c(F)c2n1` [Compound 147], the IC50 in assay [1] was greater than 15 µM. On to `CN(C)CCCOc1nc(N2CCN[C@@H](CO)C2)c2cc(Cl)c(-c3cc(O)cc4ccccc34)c(F)c2n1` [Compound 155], for which the figures for the IC50 in assay [1] and in assay [2] were greater than 15 µM and less than 15 µM, respectively. As for `CN(C)CCCOc1nc(N2CCN[C@@H](C(N)=O)C2)c2cc(Cl)c(-c3cc(O)cc4ccccc34)c(F)c2n1` [Compound 164], the IC50 in assay [1] and in assay [2] was greater than 15 µM throughout. For `CN(C)CCCOc1nc(N2CCC(C#N)CC2)c2cc(Cl)c(-c3cc(O)cc4ccccc34)c(F)c2n1` [Compound 165], the IC50 in assay [1] and in assay [2] was greater than 15 µM each time. On to `CN(C)CCCOc1nc(N2CCN[C@@H](C#N)C2)c2cc(Cl)c(-c3cc(O)cc4ccccc34)c(F)c2n1` [Compound 166], for which the IC50 in assay [1] and in assay [2] was greater than 15 µM each time. `CN(CCCCCN=[N+]=[N-])CCCOc1nc(N2CCOCC2)c2cc(Cl)c(-c3cc(O)cc4ccccc34)c(F)c2n1` [Compound 167] displayed an IC50 in assay [2] greater than 15 µM.

In assay [2], `CN(CCCCCN=[N+]=[N-])CCCOc1nc(N2CCNCC2)c2cc(Cl)c(-c3cc(O)cc4ccccc34)c(F)c2n1` [Compound 168] displayed an IC50 greater than 15 µM.

In turn, `CN(C)CCCOc1nc(N2CCNC(CC(N)=O)C2)c2cc(Cl)c(-c3cc(O)cc4ccccc34)c(F)c2n1` (centres unmarked) [Compound 169] showed an IC50 in assay [2] of less than 15 µM.

Turning to `CN(C)CCCOc1nc(N2CCNC(CC#N)C2)c2cc(Cl)c(-c3cc(O)cc4ccccc34)c(F)c2n1` (centres unmarked) [Compound 170], the results for the half-inhibitory concentration (IC50) in assay [1] and in assay [2] were less than 15 µM and greater than 15 µM, respectively.

Regarding `CC(=O)NCCCCCN(C)CCCOc1nc(N2CCOCC2)c2cc(Cl)c(-c3cc(O)cc4ccccc34)c(F)c2n1` [Compound 171], the IC50 in assay [1] and in assay [2] was greater than 15 µM throughout. For the compound `CC(=O)NCCCCCN(C)CCCOc1nc(N2CCNCC2)c2cc(Cl)c(-c3cc(O)cc4ccccc34)c(F)c2n1` [Compound 172], the figures for the IC50 in assay [1] and in assay [2] were greater than 15 µM and less than 15 µM, respectively. Turning to `Cc1cc(N)c2[nH]ncc2c1-c1c(Cl)cc2c(N3CCNCC3)nc(OCCCN(C)C)nc2c1F` [Compound 173], the IC50 in assay [1] and in assay [2] was greater than 15 µM throughout.

Take `Cc1cc(N)c2[nH]ncc2c1-c1c(Cl)cc2c(N3CCOCC3)nc(OCCCN(C)C)nc2c1F` [Compound 174]: in assay [2], the IC50 is greater than 15 µM. Turning to `CN(CCOc1nc(N2CCOCC2)c2cc(Cl)c(-c3cc(O)cc4ccccc34)c(F)c2n1)C(=O)CCl` [Compound 175], the IC50 in assay [1] and in assay [2] was greater than 15 µM each time.

As to `O=S(=O)(F)CCOc1nc(N2CCOCC2)c2cc(Cl)c(-c3cc(O)cc4ccccc34)c(F)c2n1` [Compound 176], the IC50 in assay [1] and in assay [2] was greater than 15 µM throughout. Consider `CN(C)C1CN(c2nc(N3CCNCC3)c3cc(Cl)c(-c4cc(O)cc5ccccc45)c(F)c3n2)C1` [Compound 334, 4-(6-Chloro-2-(3-(dimethylamino)azetidin-1-yl)-8-fluoro-4-(piperazin-1-yl)quinazolin-7-yl)naphthalen-2-ol], for which the IC50 in assay [2] was less than 15 µM. `CN(C(=O)CN)C1CN(c2nc(N3CCNCC3)c3cc(Cl)c(-c4cc(O)cc5ccccc45)c(F)c3n2)C1` [Compound 344]: the IC50 in assay [1] was greater than 15 µM; in assay [2], less than 15 µM. For `CN(C(=O)CO)C1CN(c2nc(N3CCNCC3)c3cc(Cl)c(-c4cc(O)cc5ccccc45)c(F)c3n2)C1` [Compound 346], the IC50 in assay [1] and in assay [2] was greater than 15 µM each time. For the compound `CN(C(=O)CCl)C1CN(c2nc(N3CCOCC3)c3cc(Cl)c(-c4cc(O)cc5ccccc45)c(F)c3n2)C1` [Compound 350], the half-inhibitory concentration (IC50) in assay [1] and in assay [2] was greater than 15 µM in each case. Regarding `CN(C(=O)CCl)C1CN(c2nc(N3CCNCC3)c3cc(Cl)c(-c4cc(O)cc5ccccc45)c(F)c3n2)C1` [Compound 351], the half-inhibitory concentration (IC50) in assay [1] and in assay [2] was greater than 15 µM in each case.
